Earlier results as cited in patent US20130202706A1 (DRUGGABILITY TECHNOLOGIES IP HOLDCO (JERSEY) LTD., priority 2010, published 2013).

Settings: oral administration

CC(C)c1c(C(=O)Nc2ccccc2)c(-c2ccccc2)c(-c2ccc(F)cc2)n1CC[C@@H](O)C[C@@H](O)CC(=O)O [Atorvastatin]
systemic availability of HMG-CoA reductase inhibitory activity: approximately 30%
